Test results as given in patent publication US20240270762A1, “PENICILLIN-BINDING PROTEIN INHIBITORS” (priority 2021, published 2024).
≈ marks a conversion by molar mass, not a printed value. Where two headings read alike, the source gives them in different places.

Key:
P. aeruginosa CDC-0054 = assay: microbe, parasite or virus in culture; assay type: cell-based; conditions: Pseudomonas aeruginosa, CDC0054, read-out: Minimum inhibitory concentration, P. aeruginosa CDC-0054
P. aeruginosa ATCC 35151 = assay: microbe, parasite or virus in culture; assay type: cell-based; conditions: Pseudomonas aeruginosa, ATCC35151, read-out: Minimum inhibitory concentration, P. aeruginosa ATCC 35151
A. baumannii ATCC 19606 = assay: microbe, parasite or virus in culture; assay type: cell-based; conditions: Acinetobacter baumannii, ATCC19606, read-out: MIC, A. baumannii ATCC 19606
[1] = tested on: B. humptydooensis ATCC BAA-2767; assay: microbe, parasite or virus in culture; assay type: cell-based; conditions: Burkholderia humptydooensis, ATCCBAA2767, read-out: Minimum inhibitory concentration (MIC), B. humptydooensis ATCC BAA-2767
N. gonorrhoeae CDC-0197 = assay: Liquid broth MIC in Fastidious broth; conditions: Neisseria gonorrhoeae
A. baumannii PBP2 = A. baumannii PBP2 (Acinetobacter baumannii, UniProt D0C8Z9); assay: Bocillin-FL competition binding via gel filtration, A. baumannii PBP2
Sequence of A. baumannii PBP2 (D0C8Z9 whole entry): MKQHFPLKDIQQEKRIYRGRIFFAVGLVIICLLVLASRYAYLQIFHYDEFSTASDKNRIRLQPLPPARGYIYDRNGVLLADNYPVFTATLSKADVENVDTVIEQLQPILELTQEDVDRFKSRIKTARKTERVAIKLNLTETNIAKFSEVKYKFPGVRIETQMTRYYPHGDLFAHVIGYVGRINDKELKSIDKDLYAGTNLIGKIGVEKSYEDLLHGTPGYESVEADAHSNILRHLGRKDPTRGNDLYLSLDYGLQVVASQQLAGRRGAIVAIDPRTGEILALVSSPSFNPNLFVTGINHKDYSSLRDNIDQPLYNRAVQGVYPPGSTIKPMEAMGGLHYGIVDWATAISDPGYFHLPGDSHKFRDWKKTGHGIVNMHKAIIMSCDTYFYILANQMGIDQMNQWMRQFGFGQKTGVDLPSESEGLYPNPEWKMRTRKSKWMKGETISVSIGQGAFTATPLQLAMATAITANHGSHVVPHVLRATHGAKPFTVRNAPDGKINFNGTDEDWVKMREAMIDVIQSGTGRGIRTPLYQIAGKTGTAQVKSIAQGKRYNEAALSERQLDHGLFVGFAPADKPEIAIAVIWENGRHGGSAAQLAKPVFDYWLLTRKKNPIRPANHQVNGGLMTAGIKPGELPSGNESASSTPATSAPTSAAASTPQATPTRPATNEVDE
How it was run: (§1)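 Competitive equilibrium binding; reporter Bocillin-FL. PBP + inhibitor (titration) pre-incubated → Bocillin-FL, 15 min → gel filtration → fluorescence. EC50 from Hill fit of fraction bound vs [inhibitor].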

A. baumannii CDC-0045 = assay: microbe, parasite or virus in culture; assay type: cell-based; conditions: Acinetobacter baumannii, CDC0045, read-out: MIC, A. baumannii CDC-0045
P. aeruginosa ATCC 27853 = assay: microbe, parasite or virus in culture; assay type: cell-based; conditions: Pseudomonas aeruginosa, ATCC27853, read-out: Minimum inhibitory concentration, P. aeruginosa ATCC 27853
[2] = tested on: P. aeruginosa (ΔmexAB-oprM); assay: Broth microdilution MIC in iron-depleted CAMHB (IDM); assay type: cell-based; conditions: Pseudomonas aeruginosa; iron-depleted CAMHB (IDM); […]; read-out: Minimum inhibitory concentration, P. aeruginosa ΔmexAB-oprM
N. gonorrhoeae MS11 = assay: Liquid broth MIC in Fastidious broth; conditions: Neisseria gonorrhoeae
B. pseudomallei Bp82 = assay: microbe, parasite or virus in culture; assay type: cell-based; conditions: Burkholderia pseudomallei, BP82, read-out: Minimum inhibitory concentration, B. pseudomallei Bp82
A. baumannii CDC-0083 = assay: microbe, parasite or virus in culture; assay type: cell-based; conditions: Acinetobacter baumannii, CDC0083, read-out: MIC, A. baumannii CDC-0083
A. baumannii PBP1a = target: T1, A. baumannii PBP1a (Acinetobacter baumannii, UniProt A0ABX6CK30); assay: Bocillin-FL competition binding via gel filtration, A. baumannii PBP1a; conditions: competition binding assay using Bocillin-FL via gel filtration; read-out: A. baumannii PBP1a Potency
T1 sequence (A0ABX6CK30 1-851): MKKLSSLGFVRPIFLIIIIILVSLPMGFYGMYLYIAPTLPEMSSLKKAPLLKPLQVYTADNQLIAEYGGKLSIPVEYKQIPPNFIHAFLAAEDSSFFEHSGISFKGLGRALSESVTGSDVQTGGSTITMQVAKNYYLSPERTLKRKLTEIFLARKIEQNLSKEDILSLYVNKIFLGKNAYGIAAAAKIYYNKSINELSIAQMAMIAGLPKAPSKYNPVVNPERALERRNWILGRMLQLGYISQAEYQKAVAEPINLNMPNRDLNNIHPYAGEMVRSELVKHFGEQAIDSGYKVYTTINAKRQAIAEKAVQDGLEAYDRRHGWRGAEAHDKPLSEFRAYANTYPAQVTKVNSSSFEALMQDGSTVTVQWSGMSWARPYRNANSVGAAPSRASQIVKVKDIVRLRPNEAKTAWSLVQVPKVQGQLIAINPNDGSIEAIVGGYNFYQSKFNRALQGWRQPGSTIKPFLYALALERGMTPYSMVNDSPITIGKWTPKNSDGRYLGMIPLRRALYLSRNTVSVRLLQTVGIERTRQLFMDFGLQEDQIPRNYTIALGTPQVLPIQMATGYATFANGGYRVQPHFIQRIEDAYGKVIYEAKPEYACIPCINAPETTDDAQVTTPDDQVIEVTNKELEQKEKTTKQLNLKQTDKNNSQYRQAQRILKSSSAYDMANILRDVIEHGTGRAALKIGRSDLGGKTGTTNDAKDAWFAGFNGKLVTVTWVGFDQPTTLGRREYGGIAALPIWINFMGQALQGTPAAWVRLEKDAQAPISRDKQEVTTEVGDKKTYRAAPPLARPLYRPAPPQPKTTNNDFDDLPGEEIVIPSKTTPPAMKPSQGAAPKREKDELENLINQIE
How it was run: as §1

[3] = tested on: B. thailandensis ATCC 700388; assay: microbe, parasite or virus in culture; assay type: cell-based; conditions: Burkholderia thailandensis, ATCC700388, read-out: Minimum inhibitory concentration (MIC), B. thailandensis ATCC 700388
P. aeruginosa CDC-0110 = assay: microbe, parasite or virus in culture; assay type: cell-based; conditions: Pseudomonas aeruginosa, CDC0110, read-out: Minimum inhibitory concentration, P. aeruginosa CDC-0110
[4] = CDC0197, read-out: Minimum Inhibitory Concentration, CDC-0197
[5] = MS11, read-out: Minimum Inhibitory Concentration, MS11
[6] = CDC0197, read-out: Minimum Inhibitory Concentration (MIC), N. gonorrhoeae CDC-0197
[7] = MS11, read-out: Minimum Inhibitory Concentration (MIC), N. gonorrhoeae MS11

| SMILES | MIC (P. aeruginosa CDC-0054) | MIC (P. aeruginosa ATCC 35151) | MIC (A. baumannii ATCC 19606) | MIC [1] | MIC (N. gonorrhoeae CDC-0197; [4]) | EC50 (A. baumannii PBP2) | MIC (A. baumannii CDC-0045) | MIC (P. aeruginosa ATCC 27853) | MIC [2] | MIC (N. gonorrhoeae MS11; [5]) | MIC (B. pseudomallei Bp82) | MIC (A. baumannii CDC-0083) | EC50 (A. baumannii PBP1a) | MIC [3] | MIC (P. aeruginosa CDC-0110) | MIC (N. gonorrhoeae CDC-0197; [6]) | MIC (N. gonorrhoeae MS11; [7]) |
| --- | --- | --- | --- | --- | --- | --- | --- | --- | --- | --- | --- | --- | --- | --- | --- | --- | --- |
| O=C(NCCCN1CCN(C(=O)N[C@@H](C(=O)N[C@H]2Cc3ccc(F)c(C(=O)O)c3OB2O)c2cc(F)c(O)c(O)c2Cl)C1=O)c1cccc(O)c1 [Example 255, (R)-3-((R)-2-(2-chloro-5-fluoro-3,4-dihydroxyphenyl)-2-(3-(3-(3-hydroxybenzamido)propyl)-2-oxoimidazolidine-1-carboxamido)acetamido)-7-fluoro-2-hydroxy-3,4-dihydro-2H-benzo[e][1,2]oxaborinine-8-carboxylic acid] | < 1 µg/mL | < 1 µg/mL | < 1 µg/mL | < 1 µg/mL | 16 to 32 µg/mL (≈ 21.9 to 43.7 µM) | 10 to 50 µM | < 1 µg/mL | < 1 µg/mL | < 1 µg/mL | 16 to 32 µg/mL (≈ 21.9 to 43.7 µM) | < 1 µg/mL | < 1 µg/mL | 10 to 50 µM | < 1 µg/mL | < 1 µg/mL |  |  |
| O=C(NCCCN1CCN(C(=O)NC(C(=O)N[C@H]2Cc3ccc(F)c(C(=O)O)c3OB2O)c2cc(F)c(O)c(O)c2Cl)C1=O)Nc1cccnc1 (stereo partly drawn) [Example 259, (3R)-3-(2-(2-chloro-5-fluoro-3,4-dihydroxyphenyl)-2-(2-oxo-3-(3-(3-(pyridin-3-yl)ureido)propyl)imidazolidine-1-carboxamido)acetamido)-7-fluoro-2-hydroxy-3,4-dihydro-2H-benzo[e][1,2]oxaborinine-8-carboxylic acid] | 2 to 4 µg/mL (≈ 2.73 to 5.47 µM) | < 1 µg/mL | < 1 µg/mL | < 1 µg/mL | 16 to 32 µg/mL (≈ 21.9 to 43.7 µM) | < 10 µM | < 1 µg/mL | < 1 µg/mL | < 1 µg/mL | 16 to 32 µg/mL (≈ 21.9 to 43.7 µM) | < 1 µg/mL | < 1 µg/mL | 10 to 50 µM | < 1 µg/mL | < 1 µg/mL |  |  |
| O=C(NCCN1CCN(C(=O)NC(C(=O)N[C@H]2Cc3ccc(F)c(C(=O)O)c3OB2O)c2cc(F)c(O)c(O)c2Cl)C(=O)C1=O)c1ccc(O)cc1 (stereo partly drawn) [Example 214, (3R)-3-(2-(2-chloro-5-fluoro-3,4-dihydroxyphenyl)-2-(4-(2-(4-hydroxybenzamido)ethyl)-2,3-dioxopiperazine-1-carboxamido)acetamido)-7-fluoro-2-hydroxy-3,4-dihydro-2H-benzo[e][1,2]oxaborinine-8-carboxylic acid] | 2 to 4 µg/mL (≈ 2.68 to 5.36 µM) | < 1 µg/mL | < 1 µg/mL | < 1 µg/mL |  | 10 to 50 µM | 2 to 4 µg/mL (≈ 2.68 to 5.36 µM) | 2 to 4 µg/mL (≈ 2.68 to 5.36 µM) | < 1 µg/mL |  | 2 to 4 µg/mL (≈ 2.68 to 5.36 µM) | > 128 µg/mL | 10 to 50 µM | 8 to 16 µg/mL (≈ 10.7 to 21.5 µM) | < 1 µg/mL | 16 to 32 µg/mL (≈ 21.5 to 42.9 µM) | 16 to 32 µg/mL (≈ 21.5 to 42.9 µM) |
| O=C(NCCCN1CCN(C(=O)NC(C(=O)N[C@H]2Cc3ccc(F)c(C(=O)O)c3OB2O)c2cc(F)c(O)c(O)c2Cl)C(=O)C1=O)Nc1ccc(O)cc1 (stereo partly drawn) [Example 227, (3R)-3-(2-(2-chloro-5-fluoro-3,4-dihydroxyphenyl)-2-(4-(3-(3-(4-hydroxyphenyl)ureido)propyl)-2,3-dioxopiperazine-1-carboxamido)acetamido)-7-fluoro-2-hydroxy-3,4-dihydro-2H-benzo[e][1,2]oxaborinine-8-carboxylic acid] | < 1 µg/mL | < 1 µg/mL | < 1 µg/mL | < 1 µg/mL |  | 10 to 50 µM | < 1 µg/mL | < 1 µg/mL | < 1 µg/mL |  | < 1 µg/mL | < 1 µg/mL | 10 to 50 µM | < 1 µg/mL | < 1 µg/mL | > 64 µg/mL | 16 to 32 µg/mL (≈ 20.6 to 41.3 µM) |
| O=C(NCCCN1CCN(C(=O)NC(C(=O)N[C@H]2Cc3ccc(F)c(C(=O)O)c3OB2O)c2cc(F)c(O)c(O)c2Cl)C(=O)C1=O)c1cccc(O)c1 (stereo partly drawn) [Example 204, (3R)-3-(2-(2-chloro-5-fluoro-3,4-dihydroxyphenyl)-2-(4-(3-(3-hydroxybenzamido)propyl)-2,3-dioxopiperazine-1-carboxamido)acetamido)-7-fluoro-2-hydroxy-3,4-dihydro-2H-benzo[e][1,2]oxaborinine-8-carboxylic acid] | < 1 µg/mL | < 1 µg/mL | < 1 µg/mL | < 1 µg/mL |  | 10 to 50 µM | < 1 µg/mL | < 1 µg/mL | < 1 µg/mL |  | < 1 µg/mL | < 1 µg/mL | 10 to 50 µM | 2 to 4 µg/mL (≈ 2.63 to 5.26 µM) | < 1 µg/mL | 16 to 32 µg/mL (≈ 21.1 to 42.1 µM) | 16 to 32 µg/mL (≈ 21.1 to 42.1 µM) |
| O=C(NCCCN1CCN(C(=O)NC(C(=O)N[C@H]2Cc3ccc(F)c(C(=O)O)c3OB2O)c2cc(F)c(O)c(O)c2Cl)C(=O)C1=O)c1ccncc1 (stereo partly drawn) [Example 205, (3R)-3-(2-(2-chloro-5-fluoro-3,4-dihydroxyphenyl)-2-(4-(3-(isonicotinamido)propyl)-2,3-dioxopiperazine-1-carboxamido)acetamido)-7-fluoro-2-hydroxy-3,4-dihydro-2H-benzo[e][1,2]oxaborinine-8-carboxylic acid] | < 1 µg/mL | < 1 µg/mL | < 1 µg/mL | < 1 µg/mL |  | 10 to 50 µM | < 1 µg/mL | < 1 µg/mL | < 1 µg/mL |  | < 1 µg/mL | < 1 µg/mL | 50 to 250 µM | < 1 µg/mL | < 1 µg/mL | 16 to 32 µg/mL (≈ 21.5 to 43 µM) | 4 to 8 µg/mL (≈ 5.37 to 10.7 µM) |
| O=C(NCCCN1CCN(C(=O)N[C@@H](C(=O)N[C@H]2Cc3ccc(F)c(C(=O)O)c3OB2O)c2cc(F)c(O)c(O)c2Cl)C1=O)Nc1cccc(O)c1 [Example 258, (R)-3-((R)-2-(2-chloro-5-fluoro-3,4-dihydroxyphenyl)-2-(3-(3-(3-(3-hydroxyphenyl)ureido)propyl)-2-oxoimidazolidine-1-carboxamido)acetamido)-7-fluoro-2-hydroxy-3,4-dihydro-2H-benzo[e][1,2]oxaborinine-8-carboxylic acid] | < 1 µg/mL | < 1 µg/mL | < 1 µg/mL | < 1 µg/mL | 16 to 32 µg/mL (≈ 21.4 to 42.8 µM) | < 10 µM | < 1 µg/mL | 2 to 4 µg/mL (≈ 2.68 to 5.36 µM) | < 1 µg/mL | 16 to 32 µg/mL (≈ 21.4 to 42.8 µM) | < 1 µg/mL | < 1 µg/mL | 10 to 50 µM | < 1 µg/mL | < 1 µg/mL |  |  |
